# According to PMC10959927, “Platinum iodido drugs show potential anti-tumor activity, affecting cancer cell metabolism and inducing ROS and senescence in gastrointestinal cancer cells” (Communications Biology, 2024):
# Values joined by “and” are separate entries in the source; they are usually repeats but may differ in a detail not shown here. Equal values may be shown once.
# Assays:
# Type in all cases: cell-based, human
# [1] = test system: telomeres, 36B4, MT-COX1, MT-CYB DNA of PANC1 cells; assay: Oxidized bases (FPG-sensitive lesions) in genome regions by qPCR; conditions: PANC1, IC50 concentration 24 h, normalized to control, single replicates
# Excerpt: (§1) Total cellular DNA from MKN45 and PANC1 cells was extracted using an NZY Tissue gDNA Isolation Kit (Nzytech, MB13503) following the manufacturer’s instructions and quantified using a Nanodrop (Nanodrop Spectrophotometer ND-1000, ThermoFisher Scientific, Wilmington, DE, USA). We adapted the procedure described by O’Callaghan et al.[76] to measure oxidative DNA damage at telomeres, 36B4 genomic region and at mitochondrial DNA (MT-COX1, MT-CYB). This is a qPCR method based on differences in PCR kinetics between DNA template digested by Formamidopyrimidine DNA Glycosylase (FPG, Cat no. M0240S) and undigested DNA. This enzyme recognizes and cuts 8-oxoguanine, producing apurinic sites that are converted into single-strand breaks by its apurinic sites lyase activity. These single-strand breaks inhibit the PCR, thus, the ΔCT after digesting DNA by […] (Ct digested–Ct undigested) is proportional to the oxidative damage in the amplified region. DNA was incubated with 8 Units of FPG during 3 h in FPG buffer (NEB1, M0240S). The reaction was stopped by incubation at 95 °C for 5 min. qPCR analysis was performed on 40 ng of digested or undigested genomic DNA. Each qPCR was performed in triplicate including no-template controls in a StepOne Real‐time PCR System (Applied Biosystems, 4376357). Target genes (Table 3) were amplified using SYBR Green (Applied Biosystems, MB345). Thermal cycling of the qPCR reaction was initiated with a denaturation step at 95 °C for 10 min. The process consisted of 40 cycles (denaturation at 95 °C for 15 sec, annealing at 60 °C for 30 sec, and elongation at 72 °C for 30 sec). This experiment was repeated three independent times with 10–12 replicates.
# [2] = test system: telomeres, 36B4, MT-COX1, MT-CYB DNA of MKN45 cells; assay: as above; conditions: MKN45, IC50 concentration 24 h, normalized to control, single replicates
# Excerpt: as §1
# PANC1 cells [3] = assay: RT-qPCR gene expression (CDKN1A, IL6, MMP1, MAP2K3, SOD1, SOD2, CAT, MKI67, TNFRSF10D)
# Protocol: (§2) Total cellular RNA was extracted using Tri-Reagent (Life Technologies), following the manufacturer’s instructions. One μg of total RNA was primed with random primers and cDNA synthesized with an M-MLV reverse transcriptase following the manufacturer’s instructions (Promega). Target genes were amplified using a SYBR Green polymerase chain reaction assay, working with the specific primer sets listed in Table 4.
# (§3) Thermal cycling of the qPCR reaction was initiated with a denaturation step at 95 °C for 10 min. The process consisted of 40 cycles (denaturation at 95 °C for 15 sec, annealing at 60 °C for 30 sec, and elongation at 75 °C for 30 sec). PCR amplifications were carried out in a StepOne Real‐time PCR System (Applied Biosystems, 4376357). Relative mRNA levels were calculated by the delta-Ct method (2-ΔΔCt), where each 1-Ct difference equals a two-fold change in transcript abundance, using GAPDH as an endogenous gene reference. ΔΔCT represents the difference between the mean ΔCT value of the cells tested and the mean ΔCT value of the calibrator, both calculated for the same PCR run.
# MKN45 cells [4] = assay: as above
# Protocol: as §2, §3
# AGS cells [5] = assay: as above
# Protocol: as §2, §3
# PANC1 cells [6] = assay: Flow cytometry mitochondrial mass and membrane potential (MitoTracker Green / CMXRos)
# Protocol: (§4) We used flow cytometry to study the mitochondrial mass, mitochondrial membrane potential (ΔΨm) and cellular senescence of untreated and treated cells. Cells (5 × 10^4) were seeded in 24-multiwell dishes and cultured overnight. […] Cells were tripsinized, stained with Mitoprobes and resuspended in Flow buffer [1X PBS; 3% Fetal Bovine Serum (v/v); 3 mM EDTA (v/v)] before analysis with a 4-laser Attune NxT Acoustic Cytometer (Thermo Fisher Scientific). For Mitoprobe assays, […] DAPI (Sigma) was used to exclude dead cells. Data were analyzed with FlowJo 9.3 software (Tree Star Inc., Ashland, OR). For mitochondrial mass and ΔΨm measurement, Mitotracker Green (MTGreen, M7514, Invitrogen) and Mitotracker Red CMXRos (CMXROS, M7512, Invitrogen) were used, respectively. Probes were incubated with cells for 30 min at 37 °C at a concentration of 100 nM (MTGreen) and 20 nM (CMXROS), and fluorescence was detected using the filters (Ex488nm/Em530/30) BL1 and (Ex561nm/Em585/16) YL1, respectively. To determine mitochondria functionality, the ratio between ΔΨm (MitoTracker Red CMXRos) versus Mit. Mass (MitoTracker Green) was calculated. The gating strategy used in all the Flow Cytometry experiments is reflected in Fig.S10.
# MKN45 cells [7] = assay: as above
# Protocol: as §4
# AGS cells [8] = assay: as above
# Protocol: as §4
# [9] = PANC1, Fig. 3C, replicate values
# [10] = MKN45, Fig. 3C, replicate values
# [11] = PANC1, fold change vs C, replicates
# [12] = MKN45, fold change vs C, replicates
smiles,measurement,setting,value
"[NH2][Pt]([NH2])([Cl])[Cl] [CDDP, cisplatin, reference compound]","TEL (Fold change - ΔCt TEL), oxidative DNA damage",[1]; FPG-digested vs undigested,4.038 and 4.138 and 5.415 and 0.6214 and 0.3967 and 0.9429 and 1.679 and 1.417 and 1.6318 and 1.586
same,"36B4 (Fold change - ΔCt 36B4), oxidative DNA damage",[1],1.144 and 1.346 and 0.8021 and 1.678 and 2.371 and 2.867 and 3.452 and 2.312 and 2.5645
same,"MT-COX1 (Fold change - ΔCt MT-COX1), oxidative DNA damage",[1],1.1557 and 1.18 and 1.253 and 1.195 and 2.153 and 0.9478 and 1.587 and 1.014 and 1.075 and 1.118
same,"MT-CYB (Fold change - ΔCt MT-CYB), oxidative DNA damage",[1],1.618 and 1.296 and 1.304 and 1.472 and 1.131 and 1.532 and 1.619 and 1.965 and 6.543 and 5.482 and 6.158 and 5.629
same,"TEL (Fold change - ΔCt TEL), oxidative DNA damage",[2]; FPG-digested vs undigested,2.134 and 3.241 and 3.532 and 0.2864 and 0.7917 and 1.101 and 0.9693 and 0.9768 and 0.981 and 0.9672
same,"36B4 (Fold change - ΔCt 36B4), oxidative DNA damage",[2],0.8255 and 0.8326 and 1.095 and 1.237 and 1.611 and 1.72 and 2.271 and 2.214 and 1.327 and 2.203
same,"MT-COX1 (Fold change - ΔCt MT-COX1), oxidative DNA damage",[2],1.028 and 1.042 and 1.044 and 1.141 and 0.8202 and 0.6032 and 2.316 and 2.623 and 3.028
same,"MT-CYB (Fold change - ΔCt MT-CYB), oxidative DNA damage",[2],1.38 and 1.409 and 1.605 and 1.1947 and 1.217 and 1.312 and 1.3882 and 2.275 and 1.316 and 2.313
same,MKI67 Fold change vs GAPDH,"PANC1 cells [3]; PANC1, Fig. S4C",0.584 fold change and 0.4541 fold change and 0.7511 fold change
same,TNFRSF10D Fold change vs GAPDH,"PANC1 cells [3]; PANC1, Fig. S4C",2.899 fold change and 2.5476 fold change and 3.299 fold change
same,CAT (Fold change vs GAPDH),"PANC1 cells [3]; PANC1, mRNA vs Control = 1",0.9643 Fold change and 0.7898 Fold change and 1.177 Fold change
same,SOD1 (Fold change vs GAPDH),"PANC1 cells [3]; PANC1, mRNA vs Control = 1",1.201 Fold change and 1.761 Fold change and 1.789 Fold change
same,SOD2 (Fold change vs GAPDH),"PANC1 cells [3]; PANC1, mRNA vs Control = 1",0.4267 Fold change and 0.395 Fold change and 0.4609 Fold change
same,"CDKN1A, Fold change vs GAPDH",PANC1 cells [3]; [9],2.689 fold change and 2.397 fold change and 3.018 fold change
same,"IL-6, Fold change vs GAPDH",PANC1 cells [3]; [9],6.723 fold change and 5.78 fold change and 7.821 fold change
same,"MMP-1, Fold change vs GAPDH",PANC1 cells [3]; [9],3.584 fold change and 2.804 fold change and 4.175 fold change
same,Fold change MAP2K3 vs GAPDH,"PANC1 cells [3]; PANC1, Fig. 4B, replicate values",2.138 fold change and 1.804 fold change and 2.534 fold change
same,MKI67 Fold change vs GAPDH,"MKN45 cells [4]; MKN45, Fig. S4C",0.592 fold change and 0.4427 fold change and 0.7916 fold change
same,TNFRSF10D Fold change vs GAPDH,"MKN45 cells [4]; MKN45, Fig. S4C",0.5932 fold change and 0.4461 fold change and 0.7888 fold change
same,CAT (Fold change vs GAPDH),"MKN45 cells [4]; MKN45, mRNA vs Control = 1",1.496 Fold change and 1.261 Fold change and 1.775 Fold change
same,SOD1 (Fold change vs GAPDH),"MKN45 cells [4]; MKN45, mRNA vs Control = 1",1.684 Fold change and 1.471 Fold change and 1.928 Fold change
same,SOD2 (Fold change vs GAPDH),"MKN45 cells [4]; MKN45, mRNA vs Control = 1",5.8142 Fold change and 4.057 Fold change and 3.7805 Fold change
same,"CDKN1A, Fold change vs GAPDH",MKN45 cells [4]; [10],4.774 fold change and 4.07 fold change and 5.599 fold change
same,"IL-6, Fold change vs GAPDH",MKN45 cells [4]; [10],1.95 fold change and 3.642 fold change and 4.704 fold change
same,"MMP-1, Fold change vs GAPDH",MKN45 cells [4]; [10],3.347 fold change and 2.194 fold change and 5.104 fold change
same,Fold change MAP2K3 vs GAPDH,"MKN45 cells [4]; MKN45, Fig. 4B, replicate values",2.858 fold change and 2.103 fold change and 3.884 fold change
same,"CDKN1A, Fold change vs GAPDH","AGS cells [5]; Fig. 3C, replicate values",19.195 fold change and 16.0881 fold change and 22.9019 fold change
same,"IL-6, Fold change vs GAPDH","AGS cells [5]; Fig. 3C, replicate values",0.7415 fold change and 0.5536 fold change and 0.449 fold change
same,"MMP-1, Fold change vs GAPDH","AGS cells [5]; Fig. 3C, replicate values",4.748 fold change and 3.523 fold change and 6.399 fold change
same,Fold change MAP2K3 vs GAPDH,"AGS cells [5]; Fig. 4B, replicate values",3.776 fold change and 3.2606 fold change and 4.374 fold change
same,TNFRSF10D Fold change vs GAPDH,AGS cells [5]; Fig. S4C,10.7682 fold change and 9.829 fold change and 11.7968 fold change
same,CAT (Fold change vs GAPDH),AGS cells [5]; mRNA vs Control = 1,0.4339 Fold change and 0.4032 Fold change and 0.467 Fold change
same,SOD1 (Fold change vs GAPDH),AGS cells [5]; mRNA vs Control = 1,1.248 Fold change and 1.114 Fold change and 1.397 Fold change
same,SOD2 (Fold change vs GAPDH),AGS cells [5]; mRNA vs Control = 1,1.83 Fold change and 1.608 Fold change and 2.083 Fold change
same,Fold change ΔΨm/MM,"PANC1 cells [6]; PANC1, IC50 doses 24 h, CMX-ROS/MitoGreen ratio vs untreated 1.0",0.48 and 0.57 and 0.56
same,"Fold change %CMXROS, ΔΨm",PANC1 cells [6]; [11],1.08 and 1.13
same,"Fold change %MTGreen, MM",PANC1 cells [6]; [11],1.99 and 2.23 and 2.11
same,Fold change ΔΨm/MM,"MKN45 cells [7]; MKN45, IC50 doses 24 h, CMX-ROS/MitoGreen ratio vs untreated 1.0",0.77 and 0.76
same,"Fold change %CMXROS, ΔΨm",MKN45 cells [7]; [12],0.72 and 0.71
same,"Fold change %MTGreen, MM",MKN45 cells [7]; [12],0.94 and 0.93
same,Fold change ΔΨm/MM,"AGS cells [8]; IC50 doses 24 h, CMX-ROS/MitoGreen ratio vs untreated 1.0",1.12 and 0.8 and 0.61
same,"Fold change %CMXROS, ΔΨm","AGS cells [8]; fold change vs C, replicates",0.87 and 0.86 and 0.72
same,"Fold change %MTGreen, MM","AGS cells [8]; fold change vs C, replicates",0.78 and 0.73 and 0.76
